According to patent US20250355001A1, “METHOD FOR DETECTING A TAU PROTEIN FRAGMENT IN A SAMPLE” (GTINVENT LIMITED, priority 2022, published 2025):

Target: dGAE aggregates (Homo sapiens, UniProt P10636)
Assay: Epitope occlusion assay: dGAE aggregation with/without LMTM, 423 mAb capture ELISA
Assay type: biochemical
Conditions: LMTM 1:5 ratio, 24 h 37 °C
Description: During dGAE aggregation in vitro, scAb binding regions on dGA/dGAE are ‘hidden’ or ‘occluded’ which leads to a loss of immunoreactivity in aggregation samples. Here we have shown the occlusion of binding regions in aggregated dGAE samples and the recovery of immunoreactivity in the presence of LMTM, a tau-aggregation inhibitor. For preparing the aggregates, 10 μl 10 mM DTT was added to 1000 μl 100 μM dGAE and agitated with/without LMTM (1:5 ratio) at 700 rpm for 24 h at 37° C. Following overnight agitation, one third of each sample was kept aside as ‘total’ and the rest was spun down at 16000×g for 30 min and separated into ‘supernatant’ and ‘pellet’. The pellet was then resuspended in half the original volume for further experiments. […] Doubling dilutions of dGAE aggregate ‘total’, ‘supernatant’ and ‘pellet’ samples at 10 μg/ml starting concentration were added to designated wells in doubling dilutions in 1×PBS. dGAE monomer (non-aggregated) was included as assay control. All double dilutions were done in final volumes of 100 μl. This was left to incubate on lab bench for 1 h followed by the addition of test scAbs at 10 μg/ml. Anti-HuCk HRP labelled secondary antibody was added as described previously and ELISA data generated is represented using the graph below.

Sequence of dGAE aggregates (P10636 614-708): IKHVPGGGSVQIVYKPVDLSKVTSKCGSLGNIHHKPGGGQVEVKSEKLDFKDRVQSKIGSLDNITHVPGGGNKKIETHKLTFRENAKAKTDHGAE

CN(C)c1ccc2c(c1)Sc1cc(N(C)C)ccc1N2.CS(=O)(=O)O.CS(=O)(=O)O [LMTM, reference compound]
effect on dGAE aggregation: preventing the aggregation event
